Literature values, collected in patent US7863277B1, “Topical antipsychotic composition” (Medcara, L.L.C., priority 2005, dated 2011).

Conditions: decreasing absorption when not taken concurrently with food

For `O=C1Cc2cc(CCN3CCN(c4nsc5ccccc45)CC3)c(Cl)cc2N1` [ziprasidone, 5-(2-(4-(1,2-benzisothiazol-3-yl)piperazinyl)ethyl)-6-chloro-1,3-dihydro-2(1H)-indole-2-one], the Oral bioavailability is listed as “about 60%”.
